This note sets out measurements from patent US11993640B2, “Treating inflammatory lung disease” (United States Government as represented by the Department …, priority 2019, dated 2024).

Non-standard residues stand in square brackets, D forms with d. Residues, ends and D or L forms follow the SMILES beside them. *: point of attachment. Phe(4-Cl) = N[C@@H](Cc1ccc(Cl)cc1)C(=O)O; hArg = N=C(N)NCCCC[C@H](N)C(=O)O; 12Ado = NCCCCCCCCCCCC(=O)O; Nle = CCCC[C@H](N)C(=O)O; Orn = NCCC[C@H](N)C(=O)O; Abu = CC[C@H](N)C(=O)O; PhAc = O=C(Cc1ccccc1)*

Holding throughout (format): cell-based, human
What all share (conditions): 5 μM, 72 h; relative to MIA602 = 1; Table 3A

The subject of one test is RT4 cells. As to the kind of experiment: In vitro cell viability, urothelial cancer RT4. The procedure: (§1) The inhibitory effects of the various synthesized GHRH antagonists were tested in cell proliferation assays in various human cancer cell lines including stomach cancer (KATOIII, N87), colon cancer (HT-29), urothelial cancer (J82, RT4), pancreatic cancer (PANC-1, CFPAC-1), prostatic cancer (PC3), breast cancer (MX-1, HCC1806), ovarian cancer (SK-OV-3, OVCAR-3) and lung cancer (HCC827, H460).
(§2) Cell culture. Human cancer cell lines including pancreatic (PANC-1 and CFPAC-1), lung (HCC827 and H460), stomach (NCI-N87 and KATOIII), urothelial (J82, RT4), prostatic (PC3), breast (MX-1 and HCC 1806), colorectal (HT-29), and ovarian (SK-OV-3 and OVCAR-3) were obtained from the American Type Culture Collection (ATCC) and cultured at 37° C. in a humidified 95% air/5% CO2 atmosphere in the medium recommended by ATCC.
(§3) In vitro cell viability. Cell viability was analyzed as follows: cancer cells including pancreatic (PANC-1 and CFPAC-1), lung (HCC827 and H460), stomach (NCI-N87 and KATOIII), urothelial (J82, RT4), prostatic (PC3) and breast (MX-1 and HCC 1806), colorectal (HT-29) and ovarian (SK-OV-3 and OVCAR-3) were grown on 96 well plates to ˜60% confluence, the cells were starved for 24 h in culture medium containing 0.5% FBS. Cells were then treated with GHRH antagonists MIA602 AVR compounds at concentrations of 1, 2.5 or 5 μM, or vehicle (0.1% DMSO) in quintuplicates for 72 hours. The medium was replaced every 48 hours. Cell viability was measured using CellTiter 96 aqueous one solution kit (Promega). Inhibitory effects of tested AVR compounds in comparison to that of MIA602 are presented as inhibitory potency.
(§4) Inhibitory effects of selected AVR compounds in comparison to that of MIA602 are presented as inhibitory potency (e.g., percentage of inhibition). […] The cell lines tested including lung cancer HCC827 (FIG. 2A), pancreatic cancer CFPAC-1 (FIG. 2B), stomach cancer N87 (FIG. 2C), colon cancer HT-29 (FIG. 2D), breast cancers MX-1 and HCC1806 (FIGS. 2E, F). […]

The next test relates to MX-1 cells. The experiment in a line: In vitro cell viability, breast cancer MX-1. On the procedure: as §1, §2, §3
(§5) Inhibitory effects of selected AVR compounds in comparison to that of MIA602 are presented as inhibitory potency (e.g., percentage of inhibition). […] The cell lines tested including lung cancer HCC827 (FIG. 2A), pancreatic cancer CFPAC-1 (FIG. 2B), stomach cancer N87 (FIG. 2C), colon cancer HT-29 (FIG. 2D), breast cancers MX-1 and HCC1806 (FIGS. 2E, F). Based on the results of cell proliferation assay after cancer cells were treated with antagonist at concentration of 5 μM for 72H, the relative inhibitory potency of AVR antagonists in comparison to MIA-602 is summarized in Table 3 A and B. Over 60 AVR compounds were tested in 12 cancer cell lines.
(§6) Based on the results of cell proliferation assay after cancer cells were treated with antagonist at concentration of 5 µM for 72H, * at concentration of 2 µM for 72 H.

A further test concerns HCC827 cells. The experiment in a line: In vitro cell viability, lung cancer HCC827. The procedure: as §1, §2, §3, §5, §6
The test system of a further test is KATOIII cells. As to the kind of experiment: In vitro cell viability, stomach cancer KATOIII. The procedure, abridged: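 Cells grown to ~60% confluence, starved 24 h in 0.5% FBS medium, then exposed to antagonists at 1, 2.5 or 5 μM or 0.1% DMSO vehicle for 72 h, in quintuplicate with medium renewed every 48 h. Viability by CellTiter 96 AQueous One; reported as inhibitory potency relative to MIA602.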

In the next test the test system is PANC-1 cells. As to the kind of experiment: In vitro cell viability, pancreatic cancer PANC-1. The procedure:
as §1, §2, §3, §5

The next test deals with HCC1806 cells. As to the kind of experiment: In vitro cell viability, breast cancer HCC1806. The procedure:
as §1, §2, §3, §5, §6

The test system of a further test is J82 cells. As to the kind of experiment: In vitro cell viability, urothelial cancer J82. On the procedure:
as §1, §2, §3, §5

In the next test the test system is CFPAC-1 cells. The experiment in a line: In vitro cell viability, pancreatic cancer CFPAC-1. On the procedure: as §1, §2, §3, §5, §6
The subject of the next test is PC3 cells. The experiment in a line: In vitro cell viability, prostatic cancer PC3. The procedure: as §1, §2, §3, §4
A further test concerns NCI-N87 cells. The experiment in a line: In vitro cell viability (CellTiter 96), stomach cancer N87. On the procedure:
as §1, §2, §3, §5, §6

On to `CCCC[C@H](NC(=O)[C@@H](NC(=O)[C@H](CC(=O)O)NC(=O)[C@H](CCC(N)=O)NC(=O)[C@H](CC(C)C)NC(=O)[C@H](CC(C)C)NC(=O)[C@H](CCCN)NC(=O)[C@H](Cc1c[nH]cn1)NC(=O)[C@H](C)NC(=O)[C@H](CO)NC(=O)[C@H](CC(C)C)NC(=O)[C@H](CCC(N)=O)NC(=O)[C@H](CC)NC(=O)[C@H](CC(C)C)NC(=O)[C@@H](NC(=O)[C@H](CCCCN)NC(=O)[C@H](CCCNC(=N)N)NC(=O)[C@H](Cc1ccc(OC)cc1)NC(=O)[C@H](CCCNC(=N)N)NC(=O)[C@H](C)NC(=O)[C@@H](NC(=O)[C@H](Cc1ccc(Cl)cc1)NC(=O)[C@@H](NC(=O)[C@H](C)NC(=O)[C@H](CC(=O)O)NC(=O)[C@@H](CCCNC(=N)N)NC(=O)[C@H](Cc1ccc(O)cc1)NC(=O)CCCCCCCCCCCNC(=O)Cc1ccccc1)[C@@H](C)CC)[C@@H](C)O)C(C)C)[C@@H](C)CC)C(=O)N[C@H](CCCNC(=N)N)C(=O)N[C@@H](CCCCNC(=N)N)C(N)=O` [AVR-104, PhAC-Ada-Tyr-DArg-Asp-Ala-Ile-Cpa-Thr-Ala-Arg-Tyr(Me)-Arg-Lys-Val-Leu-Abu-Gln-Leu-Ser-Ala-His-Orn-Leu-Leu-Gln-Asp-Ile-Nle-DArg-Har-NH2] ({PhAc-12Ado}-Y[dR]DAI[Phe(4-Cl)]TARY(Me)RKVL[Abu]QLSAH[Orn]LLQDI[Nle][dR][hArg]-NH2), for which the “Relative inhibitory potency, Urothelial RT4” value with RT4 cells is 1.697. In addition, in the test on MX-1 cells, the “Relative inhibitory potency, Breast MX-1” value is 1.310. Moreover, the “Relative inhibitory potency, Lung HCC827” value in the test with HCC827 cells turned out to be 1.525. The “Relative inhibitory potency, Stomach KATOIII” value in the test on KATOIII cells came to 1.321. In the test on PANC-1 cells, the “Relative inhibitory potency, Pancreatic Panc-1” value is on record as 1.114. Moreover, the “Relative inhibitory potency, Breast HCC1806” value in the test on HCC1806 cells is listed as 1.220. For the same molecule, the “Relative inhibitory potency, Urothelial J82” value with J82 cells is given as 3.377. Further, the “Relative inhibitory potency, Pancreatic CFPAC-1” value in the test with CFPAC-1 cells came out at 1.502. The “Relative inhibitory potency, Prostatic PC3” value with PC3 cells was found to be 1.440. Also, the “Relative inhibitory potency, Stomach N87” value with NCI-N87 cells was determined as 2.291.
As to `CCCC[C@H](NC(=O)[C@@H](NC(=O)[C@H](CC(=O)O)NC(=O)[C@H](CCC(N)=O)NC(=O)[C@H](CC(C)C)NC(=O)[C@H](CC(C)C)NC(=O)[C@H](CCCCN)NC(=O)[C@H](CCCNC(=N)N)NC(=O)[C@H](C)NC(=O)[C@H](CO)NC(=O)[C@H](CC(C)C)NC(=O)[C@H](CCC(N)=O)NC(=O)[C@H](CC)NC(=O)[C@H](CC(C)C)NC(=O)[C@@H](NC(=O)[C@H](CCCCN)NC(=O)[C@H](CCCNC(=N)N)NC(=O)[C@H](Cc1ccc(O)cc1)NC(=O)[C@H](CCCNC(=N)N)NC(=O)[C@H](C)NC(=O)[C@@H](NC(=O)[C@H](Cc1ccc(Cl)cc1)NC(=O)[C@@H](NC(=O)[C@H](C)NC(=O)[C@H](CC(=O)O)NC(=O)[C@@H](CCCNC(=N)N)NC(=O)[C@H](Cc1ccc(O)cc1)NC(=O)CCCCCCCCCCCNC(=O)Cc1ccccc1)[C@@H](C)CC)[C@@H](C)O)C(C)C)[C@@H](C)CC)C(=O)N[C@H](CCCNC(=N)N)C(=O)N[C@@H](CCCCNC(=N)N)C(N)=O` [AVR-107, PhAC-Ada-Tyr-DArg-Asp-Ala-Ile-Cpa-Thr-Ala-Arg-Tyr-Arg-Lys-Val-Leu-Abu-Gln-Leu-Ser-Ala-Arg-Lys-Leu-Leu-Gln-Asp-Ile-Nle-DArg-Har-NH2] ({PhAc-12Ado}-Y[dR]DAI[Phe(4-Cl)]TARYRKVL[Abu]QLSARKLLQDI[Nle][dR][hArg]-NH2), the “Relative inhibitory potency, Breast MX-1” value with MX-1 cells is 1.010. In addition, the “Relative inhibitory potency, Stomach KATOIII” value in the test on KATOIII cells is on record as 1.295. Further, the “Relative inhibitory potency, Pancreatic Panc-1” value in the test on PANC-1 cells was determined as 1.160. In addition, the “Relative inhibitory potency, Breast HCC1806” value in the test on HCC1806 cells amounted to 0.950. For the same molecule, the “Relative inhibitory potency, Pancreatic CFPAC-1” value in the test on CFPAC-1 cells was 1.080. Moreover, the “Relative inhibitory potency, Prostatic PC3” value in the test with PC3 cells came out at 0.800.
For the molecule `CCCC[C@H](NC(=O)[C@@H](NC(=O)[C@H](CC(=O)O)NC(=O)[C@H](CCC(N)=O)NC(=O)[C@H](CC(C)C)NC(=O)[C@H](CC(C)C)NC(=O)[C@H](CCCN)NC(=O)[C@H](Cc1c[nH]cn1)NC(=O)[C@H](C)NC(=O)[C@H](CO)NC(=O)[C@H](CC(C)C)NC(=O)[C@H](CCC(N)=O)NC(=O)[C@H](CC)NC(=O)[C@H](CC(C)C)NC(=O)[C@@H](NC(=O)[C@H](CCCCN)NC(=O)[C@H](CCCNC(=N)N)NC(=O)[C@H](Cc1ccc(OC)cc1)NC(=O)[C@H](CCCNC(=N)N)NC(=O)[C@H](C)NC(=O)[C@@H](NC(=O)[C@H](Cc1ccc(Cl)cc1)NC(=O)[C@@H](NC(=O)[C@H](C)NC(=O)[C@H](CC(=O)O)NC(=O)[C@@H](CCCNC(=N)N)NC(=O)[C@H](Cc1ccc(O)cc1)NC(=O)CCCCCCCCCCCNC(=O)[C@H](N)Cc1ccccc1)[C@@H](C)CC)[C@@H](C)O)C(C)C)[C@@H](C)CC)C(=O)N[C@H](CCCNC(=N)N)C(=O)N[C@@H](CCCCNC(=N)N)C(N)=O` [AVR-120, D-Phe-Ada-Tyr-DArg-Asp-Ala-Ile-Cpa-Thr-Ala-Arg-Tyr(Me)-Arg-Lys-Val-Leu-Abu-Gln-Leu-Ser-Ala-His-Orn-Leu-Leu-Gln-Asp-Ile-Nle-DArg-Har-NH2] (H-[dF][12Ado]Y[dR]DAI[Phe(4-Cl)]TARY(Me)RKVL[Abu]QLSAH[Orn]LLQDI[Nle][dR][hArg]-NH2; N-terminus assumed), in the test on RT4 cells, the “Relative inhibitory potency, Urothelial RT4” value is on record as 1.611. In the test on HCC827 cells, the “Relative inhibitory potency, Lung HCC827” value is 1.423. Besides, the “Relative inhibitory potency, Stomach KATOIII” value in the test on KATOIII cells was 1.271. In addition, the “Relative inhibitory potency, Pancreatic Panc-1” value in the test on PANC-1 cells came out at 1.306. Moreover, the “Relative inhibitory potency, Urothelial J82” value in the test with J82 cells amounted to 4.841. In addition, the “Relative inhibitory potency, Pancreatic CFPAC-1” value in the test on CFPAC-1 cells was found to be 1.617. The “Relative inhibitory potency, Stomach N87” value in the test on NCI-N87 cells stood at 2.339.
